{"source": "patent US20260200885A1", "about": "“BENZOPYRONE COMPOUNDS AS WELL AS PREPARATION METHOD THEREFOR AND USE THEREOF” (CHENGDU DI’AO JIUHONG PHARMACEUTICAL FACTORY, priority 2022, published 2026)", "key": {"[1]": {"tested_on": "MOLM-13-luc tumor cells", "experiment": "In vivo pharmacodynamic test, MOLM-13-luc orthotopic mouse model of leukemia", "procedure": "The efficacy of compounds was evaluated using an orthotopic mouse model of leukemia. […] After the cell confluence reached 80%-90%, the cells were subcultured into separate flasks. The tumor cells in the logarithmic growth phase were used for the inoculation of tumors in vivo. Approximately 7 days after the inoculation of the tumor cells, according to the body weights of the animals and optical signal intensity at tumor sites, the animals were randomly divided into 4 groups, namely solvent control group [5% TPGS in PH 8 buffer (50 mM potassium dihydrogen phosphate buffer), BID, intragastric administration], IMT1B (50 mpk, BID, intragastric administration), A1-1-5 (25 mpk, BID, intragastric administration) and A1-1-5 (50 mpk, BID, intragastric administration), with 10 animals in each group. Tumor growth was monitored, and behavioral changes in the animals were also monitored.\nDuring the experiment, all the animals were weighed twice a week. The percentage of body weight change (BW change, %) was calculated using the following formula: BW change=(BW Day X/BW Day 0)×100, where BW Day X is the body weight of the animals on the day of administration, and BW Day 0 is the body weight of the animals on the day of grouping.\nMice were imaged twice a week according to their status using the small animal living imaging system IVIS Lumina III (Perkin Elmer). The signal intensity of the bioluminescence imaging (BLI, unit: photons/s) at tumor cell inoculation sites in mice was monitored, which served as the main indicator for evaluating tumor growth and the efficacy of drugs. The specific operation procedures were as follows.\nAfter the mice were intraperitoneally injected with D-luciferin (manufactured by Perkin Elmer, 15 mg/mL solution, injected at […] according to the body weight of experimental animals), the animals were subjected to inhalation anesthesia using 1%-2% isoflurane. Approximately 10 minutes after the injection of D-luciferin, the animals were imaged using IVIS Lumina III. The imaging results were analyzed and processed using the Living Image software (Perkin Elmer), and the optical signal intensity in the ROI (regions of interest) of the whole body of each animal was calculated. […] The administration and imaging were continued for the animals in other groups. At the endpoint of the experiment, the median survival times of all groups throughout the experiment were calculated, and the curves were plotted."}, "[2]": {"tested_on": "A2780 cells", "experiment": "Determination of cell activity (CellTiter-Glo Luminescent Cell Viability Assay)", "assay_type": "cell-based", "conditions": "A2780 cells, 7 days treatment, CellTiter-Glo, read-out: IC50", "procedure": "To examine the effect of compounds on cell viability, ATP was directly quantified using the CellTiter-Glo Luminescent Cell Viability Assay (Promega) to determine the number of viable cells.\nCell density was selected based on optimal signal intensity and growth curve for the inoculation of A2780 cells. The cells were incubated at 37° C. and 5% C02 overnight. Cells were treated with blank group, DMSO group and compound group, respectively, at 37° C. and 5% C02 for 7 days. The prepared solutions were added to cell wells according to the instructions of CellTiter-Glo (Promega), and shaken at a speed of 400 g for 2 min. Then, the solutions were centrifuged at 1000 g for 2 min and incubated at rest for 30 min to ensure a complete reaction. […] readings were taken using a multi-label microplate reader (Perkin Elmer) to calculate IC50 values."}, "[3]": {"tested_on": "RNA polymerase III (RNA pol III)", "experiment": "Compound selectivity by real-time fluorescent quantitative PCR in A549 cells: gene regulated by RNA pol III", "assay_type": "cell-based", "conditions": "for Expression of genes regulated by RNA pol III (5S): 72 h, qPCR ΔΔCt, significance by T-Test", "procedure": "(§1) Tumor cells A549 were plated at an appropriate density and incubated overnight. The cells were treated with compounds or DMSO for 72 h, and total cellular RNA was extracted according to the instructions of TaqMan™ Fast Advanced Cells-to-CT™ Kit (Invitrogen #A35377). Briefly, the cells were washed with PBS twice. Supernatants were discarded, and 50 μL/well of lysis buffer was added. The cells were incubated at room temperature for 5 min. Then, 5 μL of stop buffer was added. The mixture was left to stand for 2 min and then placed on ice in preparation for reverse transcription and extraction of cDNA. QPCR was carried out according to the requirements of TaqMan® Fast Advanced Master Mix (Invitrogen). Eukaryotes have three different nuclear RNA polymerases, namely RNA polymerase I (RNA pol I), RNA polymerase II (RNA pol II) and RNA polymerase III (RNA pol III). To eliminate the effect of the compounds on the inhibition of the activity of other RNA polymerases, we selected 18S rRNA, 28S rRNA; β-actin; 5S rRNA; ND1, CYTB and COX1 transcriptionally regulated by RNA Pol I, II, III and POLRMT. Whether the mRNA levels of these genes were inhibited was detected. The qPCR results were analyzed by the ΔΔCt method and statistically analyzed by Graphpad8.0. The significant differences were statistically analyzed by T-Test."}, "[4]": {"experiment": "Pharmacokinetic assay in CD1 mice", "assay_type": "in vivo", "conditions": "for F: bioavailability; for half-life: Table I-3, read-out: T1/2 (h) for oral administration (converted)", "procedure": "pharmacokinetic assay of compounds was carried out in CD1 mice aged 6-8 weeks with IMT1B as a positive control. The compounds and the positive control were dissolved in 30% aqueous hydroxypropyl-β-cyclodextrin solution containing 25% PEG400 and administered via intravenous injection (1 mg/kg) or intragastric administration (5 mg/kg). Blood samples were collected at 0.033, 0.083, 0.25, 0.5, 1, 2, 4, 8, 24 h and 0.083, 0.25, 0.5, 1, 2, 4, 8, 24 h respectively after administration.\nThe concentration of the compounds in plasma samples was analyzed using the LC-MS/MS method. Pharmacokinetic calculations were performed using WinNonlin (Phoenix™, version 8.3) or other similar software. The following pharmacokinetic parameters were calculated from the plasma concentration vs. time data: for intravenous administration: T1/2, C0, AUClast, AUCinf, MRTinf, Cl, Vss, regression coefficient, etc.; for oral administration: T1/2, Cmax, Tmax, AUClast, AUCinf, bioavailability, etc. The above parameter data were statistically calculated and described using descriptive statistics such as mean value and standard deviation."}, "[5]": {"molecular_target": "T1, POLRMT (Homo sapiens, UniProt O00411)", "T1 construct": "endogenous in cells; host or cells: A549", "T1 sequence (O00411 42-1230)": "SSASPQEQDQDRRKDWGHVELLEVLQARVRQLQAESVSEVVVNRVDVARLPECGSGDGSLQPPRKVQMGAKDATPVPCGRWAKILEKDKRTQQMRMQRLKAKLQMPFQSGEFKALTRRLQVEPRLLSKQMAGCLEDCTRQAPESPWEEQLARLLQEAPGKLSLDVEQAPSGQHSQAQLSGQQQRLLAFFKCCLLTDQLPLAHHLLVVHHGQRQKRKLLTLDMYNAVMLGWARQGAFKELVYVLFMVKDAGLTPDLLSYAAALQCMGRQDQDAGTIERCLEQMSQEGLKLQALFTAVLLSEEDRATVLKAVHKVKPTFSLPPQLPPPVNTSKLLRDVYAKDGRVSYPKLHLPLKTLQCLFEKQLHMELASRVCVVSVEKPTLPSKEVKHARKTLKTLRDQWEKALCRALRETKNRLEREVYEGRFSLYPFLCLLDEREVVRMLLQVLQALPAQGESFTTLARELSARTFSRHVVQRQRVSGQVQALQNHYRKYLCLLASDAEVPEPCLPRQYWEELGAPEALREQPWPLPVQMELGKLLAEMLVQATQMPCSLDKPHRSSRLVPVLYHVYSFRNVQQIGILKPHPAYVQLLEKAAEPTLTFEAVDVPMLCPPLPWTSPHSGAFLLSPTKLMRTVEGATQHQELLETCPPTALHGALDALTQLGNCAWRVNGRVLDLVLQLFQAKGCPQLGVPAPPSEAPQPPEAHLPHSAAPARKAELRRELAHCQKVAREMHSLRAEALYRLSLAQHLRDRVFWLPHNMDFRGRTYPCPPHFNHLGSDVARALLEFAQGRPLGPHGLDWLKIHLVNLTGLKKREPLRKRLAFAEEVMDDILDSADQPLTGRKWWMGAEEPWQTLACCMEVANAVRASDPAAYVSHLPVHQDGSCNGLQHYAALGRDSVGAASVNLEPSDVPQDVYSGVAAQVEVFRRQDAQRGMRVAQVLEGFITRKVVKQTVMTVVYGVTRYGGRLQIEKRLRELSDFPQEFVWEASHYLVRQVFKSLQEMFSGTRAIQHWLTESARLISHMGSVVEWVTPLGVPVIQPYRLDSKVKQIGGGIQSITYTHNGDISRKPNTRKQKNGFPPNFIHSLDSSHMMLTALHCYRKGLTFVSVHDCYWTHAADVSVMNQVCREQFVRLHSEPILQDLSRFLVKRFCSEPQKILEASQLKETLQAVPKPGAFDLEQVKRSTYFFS", "experiment": "Compound selectivity by real-time fluorescent quantitative PCR in A549 cells: genes regulated by POLRMT", "assay_type": "cell-based", "conditions": "72 h, qPCR ΔΔCt, significance by T-Test", "procedure": "as §1"}, "[6]": {"tested_on": "RNA polymerase II (RNA pol II)", "experiment": "Compound selectivity by real-time fluorescent quantitative PCR in A549 cells: gene regulated by RNA pol II", "assay_type": "cell-based", "conditions": "for Expression of genes regulated by RNA pol II (β-actin): 72 h, qPCR ΔΔCt, significance by T-Test", "procedure": "as §1"}, "[7]": {"tested_on": "RNA polymerase I (RNA pol I)", "experiment": "Compound selectivity by real-time fluorescent quantitative PCR in A549 cells: genes regulated by RNA pol I", "assay_type": "cell-based", "conditions": "for Expression of genes regulated by RNA pol I (18S, 28S): 72 h, qPCR ΔΔCt, significance by T-Test", "procedure": "as §1"}, "[8]": {"conditions": "at the same dose (50 mpk, BID, intragastric)"}, "[9]": {"conditions": "main pharmacokinetic parameters, Table I-4"}, "[10]": {"conditions": "mouse, plasma, po, 5 mg/kg, main pharmacokinetic parameters, Table I-4"}, "[11]": {"conditions": "mouse, plasma, po, intragastric administration 5 mg/kg"}}, "note": "Where two headings read alike, the source gives them in different places.", "data": [{"smiles": "C[C@@H](Oc1ccc2c(-c3ccc(F)cc3Cl)cc(=O)oc2c1)C(=O)c1cccc(C(=O)O)c1", "note": "[Compound A1-1-5]", "values": [{"measurement": "efficacy at a relatively low dose", "setting": "[1]; MOLM13 orthotopic hematological tumor model, BID intragastric", "value": "effective at a relatively low dose"}, {"measurement": "tumor inhibitory effect (BLI imaging)", "setting": "[1]; MOLM13 orthotopic hematological tumor model, BID intragastric, 25 and 50 mpk", "value": "good tumor inhibitory effect"}, {"measurement": "median survival time compared with IMT1B", "setting": "[1]; [8]", "value": "significantly superior to IMT1B"}, {"measurement": "tumor inhibition compared with IMT1B", "setting": "[1]; [8]", "value": "significantly superior to IMT1B"}, {"measurement": "IC50", "setting": "[2]; Homo sapiens, 168 h", "value": "20 to 100", "unit": "nM"}, {"measurement": "Expression of genes regulated by RNA pol III (5S)", "setting": "[3]", "value": "(-) ((-) represents P≥ 0.05)"}, {"measurement": "F", "setting": "[4]; Table I-4", "value": 85.846, "unit": "%"}, {"measurement": "maximum plasma concentration Cmax compared with IMT1B", "setting": "[4]; comparison in words", "value": "significantly superior to IMT1B"}, {"measurement": "plasma exposure AUC compared with IMT1B", "setting": "[4]; comparison in words", "value": "significantly superior to IMT1B"}, {"measurement": "T1/2", "setting": "[4]; [9]", "value": 3.158, "unit": "h"}, {"measurement": "AUC(0-inf)", "setting": "[4]; [10]", "value": 179, "unit": "µg·h/mL"}, {"measurement": "AUC(0-t)", "setting": "[4]; [10]", "value": 178, "unit": "µg·h/mL"}, {"measurement": "Cmax", "setting": "[4]; mouse, plasma, po, 5 mg/kg, main pharmacokinetic parameters, Table I-4, read-out: Cmax", "value": 44100, "unit": "ng/mL"}, {"measurement": "half-life", "setting": "[4]; [11]", "value": 3.16, "unit": "h"}, {"measurement": "Expression of genes regulated by POLRMT (ND1, CYTB, COX1)", "setting": "[5]", "value": "(++) ((++) represents P < 0.01)"}, {"measurement": "Expression of genes regulated by RNA pol II (β-actin)", "setting": "[6]", "value": "(-) ((-) represents P≥ 0.05)"}, {"measurement": "Expression of genes regulated by RNA pol I (18S, 28S)", "setting": "[7]", "value": "(-) ((-) represents P≥ 0.05)"}]}, {"smiles": "C[C@@H](Oc1ccc2c(-c3ccc(F)cc3Cl)cc(=O)oc2c1)C(=O)N1CCC[C@H](C(=O)O)C1", "note": "[IMT1B, reference compound]", "values": [{"measurement": "IC50", "setting": "[2]", "value": "20 to 100", "unit": "nM"}, {"measurement": "Expression of genes regulated by RNA pol III (5S)", "setting": "[3]", "value": "(-) ((-) represents P≥ 0.05)"}, {"measurement": "inhibition of the activity of RNA polymerase III", "setting": "[3]; qPCR, in words", "value": "do not inhibit"}, {"measurement": "F", "setting": "[4]; Table I-4", "value": 80.236, "unit": "%"}, {"measurement": "T1/2 (h) for oral administration", "setting": "[4]; intragastric administration 5 mg/kg, Table I-3", "value": 2.445, "unit": "h"}, {"measurement": "AUCInf", "setting": "[4]; [9]", "value": 24.420076, "unit": "µg·h/mL"}, {"measurement": "AUClast", "setting": "[4]; [9]", "value": 24.389836, "unit": "µg·h/mL"}, {"measurement": "Cmax", "setting": "[4]; [9]", "value": 7300, "unit": "ng/mL"}, {"measurement": "T1/2", "setting": "[4]; [9]", "value": 2.445, "unit": "h"}, {"measurement": "Expression of genes regulated by POLRMT (ND1, CYTB, COX1)", "setting": "[5]", "value": "(++) ((++) represents P < 0.01)"}, {"measurement": "Expression of genes regulated by RNA pol II (β-actin)", "setting": "[6]", "value": "(-) ((-) represents P≥ 0.05)"}, {"measurement": "inhibition of the activity of RNA polymerase II", "setting": "[6]; qPCR, in words", "value": "do not inhibit"}, {"measurement": "Expression of genes regulated by RNA pol I (18S, 28S)", "setting": "[7]", "value": "(-) ((-) represents P≥ 0.05)"}, {"measurement": "inhibition of the activity of RNA polymerase I", "setting": "[7]; qPCR, in words", "value": "do not inhibit"}]}, {"smiles": "CC(Oc1ccc2c(-c3ccc(F)cc3Cl)cc(=O)oc2c1)C(=O)C1CCC(C(=O)[O-])CC1.[Na+]", "note": "(stereo not drawn) [α-10]", "values": [{"measurement": "IC50", "setting": "[2]; Homo sapiens, 168 h", "value": "< 20", "unit": "nM"}, {"measurement": "half-life", "setting": "[4]; [11]", "value": 4.29, "unit": "h"}]}, {"smiles": "CC(Oc1ccc2c(-c3ccc(F)cc3Cl)cc(=O)oc2c1)C(=O)C1CCNCC1", "note": "(stereo not drawn) [α-11]", "values": [{"measurement": "IC50", "setting": "[2]; Homo sapiens, 168 h", "value": "20 to 100", "unit": "nM"}, {"measurement": "half-life", "setting": "[4]; [11]", "value": 5.27, "unit": "h"}]}, {"smiles": "CC(Oc1ccc2c(-c3ccc(F)cc3Cl)cc(=O)oc2c1)C(=O)c1ccncc1", "note": "(stereo not drawn) [α-13]", "values": [{"measurement": "IC50", "setting": "[2]; Homo sapiens, 168 h", "value": "20 to 100", "unit": "nM"}, {"measurement": "half-life", "setting": "[4]; [11]", "value": 6.91, "unit": "h"}]}]}
